Experimental data taken from patent publication US20140178432A1, “PRODUCTION OF DENSE BODIES (DB) FROM HCMV-INFECTED CELLS” (priority 2011, published 2014).
Entries after “also recorded” stand apart in the source; their conditions may differ.

How the values were obtained:
Assay type in all cases: cell-based, human cytomegalovirus (HCMV)
HCMV strain AD169 = test: Dense Body (DB) production in human foreskin fibroblasts infected with HCMV strain AD169, electron microscopy; details: for infectious virus particles in the cytoplasm of treated cells / accumulation of DB in the cytoplasm (electron microscope): HFF infected with HCMV AD169, 5 days incubation, A: 50 nmol/l, B: 5 nmol/l, C: 500 nmol/l, D: 500 nmol/l; for infectious virus particles in the cytoplasm of treated cells: untreated cells relatively large numbers; for accumulation of DB in the cytoplasm (electron microscope): untreated cells virtually no DB; for concentration that led to optimal results (DB production): HFF infected with HCMV strain AD169
Experimental: (§1) Human foreskin fibroblasts (“human foreskin fibroblasts, HFF”) were added in an amount of 1×10^6 cells per flask in 5 T75-cell culture flasks on the day before the infection. The HCMV strain AD 169 was prepared as a frozen, cell-free virus preparation that was obtained from cells that were present in a late stage of infection. The substances (A), (B), (C), and (D) according to the invention were provided as stock solutions of 50 mmol/l each in DMSO.
The stock solutions were diluted 1:1000 to a final concentration of 50 μmol/l. The solutions were further diluted as follows: A: 1:1000 (50 nmol/l) 12 μml in 12 ml of MEM; B: 1:10,000 (5 nmol/l) 1.2 μml in 12 ml of MEM; C: 1:100 (500 nmol/l) 120 μml in 12 ml of MEM; D: 1,100 (500 nmol/l) 120 μml in 12 ml of MEM.
(§2) The HFF cells were incubated for one hour with the virus preparation at a m.o.i. (“multiplicity of infection”) of ≧≧1 TCID 50/cell (1:20 dilution). Then, the virus supernatant was removed, and an incubation of the infected cells was carried out with the substances according to the invention at the following concentrations: A: 50 nmol/l; B: 5 nmol/l; C: 500 nmol/l; D: 500 nmol/l.
(§3) The cells were incubated for 5 days, whereby a renewal of the substance-containing medium was performed after the first and fourth days. After the incubation, the infected cells were examined by electron microscope in the formation of DB.

HCMV strain TB40/E = test: Dense Body (DB) production in HUVEC infected with HCMV strain TB40/E, electron microscopy; details: for virions in the cytoplasm of the treated batch / concentration of DB in the cytoplasm of the infected cells (electron microscope): HUVEC infected with HCMV TB40/E, A: 300 nmol/l, B: 300 nmol/l, C: 3 μmol/l; for concentration of DB in the cytoplasm of the infected cells (electron microscope): control only a few DB; for concentration that led to optimal results (DB production): HUVEC infected with HCMV strain TB40/E
Experimental: as §1, §2, §3
In another experiment, human endothelial cells from the umbilical vein (HUVEC) were infected with the HCMV strain TB40/E, which was isolated from cells in a late stage of infection. The experimental design corresponds to the one shown under 2.1, whereby the incubation of cells was carried out at the following concentrations of the substances according to the invention: A: 300 nmol/l; B: 300 nmol/l: C: 3 μmol/l; D: […].

clinical HCMV isolate = test: Dense Body (DB) production in HFF infected with a clinical HCMV isolate, co-cultured with non-infected HFF, electron microscopy; details: HFF infected with a clinical isolate of HCMV, co-culture with non-infected HFF
Experimental: HFF were infected with a clinical HCMV isolate, which was isolated from cells in a late stage of infection, as further described above under 2.1. The infected HFF were co-cultivated with non-infected HFF in mini-trays (3,000 cells/recess). Three different ratios of infected/non-infected cells were produced: undiluted; 1:2 diluted; 1:4 diluted. The substances according to the invention were incubated with the cells at the following concentrations: A: 300 nmol/l; B: 300 nmol/l; C: 3 μmol/l; D: 30 μmol/l.
After 5 days of incubation at 37° C., the electron-microscopic study was carried out. […] The greater the dilution with non-infected cells, the fewer DB accumulated in the cytoplasm. In the control batch without a substance according to the invention, only very few DB could be identified. Moreover, the ejection of infectious particles from the cell nucleus was prevented in turn by the addition of the substances according to the invention.

| SMILES | infectious virus particles in the cytoplasm of treated cells (HCMV strain AD169) | accumulation of DB in the cytoplasm (electron microscope) (HCMV strain AD169) | concentration that led to optimal results (DB production) (HCMV strain AD169) [nmol/L] | virions in the cytoplasm of the treated batch (HCMV strain TB40/E) | concentration of DB in the cytoplasm of the infected cells (electron microscope) (HCMV strain TB40/E) | concentration that led to optimal results (DB production) (HCMV strain TB40/E) [nmol/L] | concentration that led to good results (DB production) (clinical HCMV isolate) [nmol/L] |
| --- | --- | --- | --- | --- | --- | --- | --- |
| COc1cccc(N2CCN(C3=Nc4c(F)cccc4[C@H](CC(=O)O)N3c3cc(C(F)(F)F)ccc3OC)CC2)c1 [substance (A), (4S)-{8-fluoro-2-[4-(3-methoxyphenyl)-1-piperazinyl]-3-[2-methoxy-5-(trifluoromethyl)-phenyl]-3,4-dihydro-4-quinazolinyl}acetic acid] | no single infectious virus particle was to be found | large amounts of DB; also recorded: high concentrations of DB | 50 | no virions could be detected | strong concentration of DB | 300 | 300 |
| Cc1ccc(N2CCN(C(=O)c3nc(NC(=O)Nc4ccc(OC(F)(F)F)cc4)cn3C)CC2)nc1 [substance (B), N-{1-methyl-2-[(4-(5-methyl-pyridin-2-yl)-piperazin-1-yl)carbonyl]-1H-imidazol-4-yl}-N′-[4-(trifluoromethoxy)phenyl]urea] | no single infectious virus particle was to be found | large amounts of DB; also recorded: high concentrations of DB | 5 | no virions could be detected | strong concentration of DB | 300 | 300 |
| COc1c(N2CCC(C(=O)O)CC2)c(F)cc2c(=O)c(C(=O)NCc3ccc(OC(F)(F)F)cc3C)cn(CC(F)(F)F)c12 [substance (C), 1-[6-fluoro-8-methoxy-3-({[2-methyl-4-(trifluoromethoxy)benzyl]amino}carbonyl)-4-oxo-1-(2,2,2-trifluoroethyl)-1,4-dihydroquinolin-7-yl]piperidine-4-carboxylic acid] | no single infectious virus particle was to be found | large amounts of DB; also recorded: high concentrations of DB | 500 | no virions could be detected | strong concentration of DB | 3000 | 3000 |
| N#CC1(C(=O)Nc2cc(F)cc(NS(=O)(=O)c3ccc(-c4noc(-c5cccc(N)n5)n4)cc3)c2)CC1 [substance (D), N-{3-[({4-[5-(6-aminopyridin-2yl)-1,2,4-oxadiazol-3-yl]phenyl}sulfonyl)amino]-5-fluorophenyl}-1-cyanocyclopropane carboxamide] | no single infectious virus particle was to be found | large amounts of DB; also recorded: high concentrations of DB | 500 | no virions could be detected | strong concentration of DB | 30000 | 30000 |
